Assays:
[1] = has been used as a medicament; cited from earlier work
[2] = tested on: Aβ (1-42) production and secretion in IMR-32 cells; experiment: Inhibitory activity against Aβ (1-42) production or secretion in human neuroblastoma IMR-32 cells (EIA, BAN-50/BC-05); assay type: cell-based; settings: not a significant change
Excerpt: (§1) Studies on Aβ production or secretion in human-derived neurons and gliocytes are very interesting because of the relation to Alzheimer's dementia. However, human primary culture neurons and gliocytes cannot generally be used for experimental materials. IMR-32 cells were therefore used. The IMR-32 cells are human-derived neuroblastoma cells, and produce and secrete Aβ in the culture supernatant (Shinkei Kagaku (Neurochemistry) 33, 232 (1994)). In addition, Dr. Hironobu Suzuki et al. (Science, 264, 1336 (1994)) had developed an enzyme immunoassay method that can determine and distinguish between Aβ of 40 amino acids (Aβ (1-40)) and Aβ of 42 amino acids (Aβ (1-42)). This method was used to determine inhibitory activity of the test compound against Aβ production or secretion.
Human neuroblastoma IMR-32 cells were purchased from American Type Culture Collection (ATCC). Dulbecco's modified Eagle's medium (DMEM) was purchased from Nissui Pharmaceutical Co., Ltd., Japan. Fetal calf serum (hereinaftersometimes abbreviated as FCS) and a mixed solution of penicillin (5000 U/ml) and streptomycin (5 mg/ml) were purchased from Biowhittaker Inc. Phosphate buffered saline (PBS) was purchased from Flow Laboratories. Block Ace was purchased from Dainippon Pharmaceutical Co., Ltd. Bovine serum albumin (BSA) was purchased from Sigma. […]

[3] = tested on: guinea pig primary culture neurons
Protocol: Fetal brains were taken out from guinea pigs (SLC-Hartley) that was 28 days pregnant. The cerebral cortex and hippocampus were taken out under a stereoscopic microscope, and, after removing the meninges, were treated in Hank's Balanced Salt Solution (20 ml) containing 0.25% trypsin/0.01% DNase I for 10 minutes. FCS was added to stop the reaction, and the mixture was centrifuged. The cells were dispersed in DMEM culture solution (DMEM/N2 culture solution) containing insulin 5 μg/ml, transferrin 100 μg/ml, progesterone 20 nM, putrescine 100 μM and sodium selenite 30 nM. The dispersion was filtered through double lens paper, and the filtrate was centrifuged to collect the cells. The cells were dispersed in DMEM/N2 culture solution, and inoculated in a 24-well plate at a density of 1×10^-6 cells/well. On the second day from the beginning of the cultivation, the culture solution was replaced with DMEM/N2 culture solution containing cytosine arabinoside (1 μM). After the treatment for 3 days, the culture solution was replaced with DMEM/N2 culture solution. Thereafter, the culture solution was replaced every 2 to 3 days. […] After the culture supernatant was collected, DMEM culture solution (300 μl) containing 1.2 mM MTT was added. After the reaction was carried out at 37° C. for 1 hour, an equal amount of 10% sodium dodecyl sulfate solution was added.

[4] = tested on: Aβ (1-40) production and secretion in guinea pig primary culture neurons; experiment: Inhibitory activity against Aβ (1-40) production and secretion in guinea pig primary culture neurons (EIA); assay type: cell-based; settings: 3×10^-5 M, 24 hours
Excerpt: Aβ (1-40) and Aβ (1-42) in the culture supernatant were quantified in the same manner as that described in Experiment 1.

IMR-32 cells [5] = experiment: Evaluation of the cytotoxicity, lactate dehydrogenase (LDH) method, IMR-32 cells; assay type: cell-based, human; settings: 1×10^-4 (maximum concentration used)
Protocol: IMR-32 cells were cultured at 37° C. in 10% carbon dioxide/90% air using 10% FCS/DMEM culture solution in a flask (Falcon, 750 ml) until the confluent growth of the cells was obtained. Then, the cells were inoculated in a 48-well multi well plate at a density of 2.5×10^5 cells/well, and cultured for 5 days. […] The cells were cultured for 24 hours. […] The culture supernatant (10 μl) obtained after the assay of Aβ (1-40) was sampled, and the amount of LDH released from the cells was determined with a LDH assay kit (LDH C-II manufactured by Wako Pure Chemical Industries, Ltd.). Four wells were used per dose of the drug. The value in the data was represented as a ratio (%) to the control group. Dunnett's t test was used for the statistical analysis.

IMR-32 cells [6] = experiment: Evaluation of the cytotoxicity, MTT method, IMR-32 cells; assay type: cell-based, human; settings: 1×10^-4 (maximum concentration used)
Protocol: The culture supernatant was sampled, and DMEM culture solution (500 μl) containing 1.2 mM MTT {3-(4,5dimethyl-2-thiazolyl)-2,5-diphenyl-2H-tetrazolium bromide} was added. The reaction was carried out for 1 hour at 37° C., and then an equal amount of 10% sodium dodecyl sulfate solution was added. The mixture was gently stirred overnight to dissolve the resulting formazan, and then subjected to colorimetry (wavelength: 550 nm) with a plate reader.
Four wells were used per dose of the drug. The value in the data was represented as a ratio (%) to the control group. Dunnett's t test was used for the statistical analysis.

[7] = tested on: Aβ production or secretion in IMR-32 cells; experiment: Inhibitory activity against Aβ production or secretion in human neuroblastoma IMR-32 cells (EIA); assay type: cell-based; settings: 24 hours, vs control group, mean of 4 wells, read-out: inhibition of Aβ production or secretion, based on the control group
Excerpt: as §1
Human neuroblastoma IMR-32 cells were purchased from American Type Culture Collection (ATCC). Dulbecco's modified Eagle's medium (DMEM) was purchased from Nissui Pharmaceutical Co., Ltd., Japan. Fetal calf serum (hereinaftersometimes abbreviated as FCS) and a mixed solution of penicillin (5000 U/ml) and streptomycin (5 mg/ml) were purchased from Biowhittaker Inc. Phosphate buffered saline (PBS) was purchased from Flow Laboratories. Block Ace was purchased from Dainippon Pharmaceutical Co., Ltd. Bovine serum albumin (BSA) was purchased from Sigma. Flasks for culture and 48-well multi well plates were those manufactured by Falcon and Coster Corporation, respectively. Standard samples of Aβ (1-40) and Aβ (1-42) were purchased from Bachem. The other reagents used were commercially available highest quality goods.
IMR-32 cells were cultured at 37° C. in 10% carbon dioxide/90% air using 10% FCS/DMEM culture solution in a flask (Falcon, 750 ml) until the confluent growth of the cells was obtained. Then, the cells were inoculated in a 48-well multi well plate at a density of 2.5×10^5 cells/well, and cultured for 5 days. The culture solution was sucked off, and then DMEM/0.5% BSA (0.5 ml for the assay of Aβ (1-40) or 0.25 ml for the assay of Aβ (1-42)) was added. The cells were cultured for 24 hours.
In each case, the primary antibody was BAN-50 antibody that recognizes the N-terminal region of Aβ (1-40). BA-27 is an antibody prepared using Aβ (1-40) as an antigen, and recognizes the C-terminal region of Aβ (1-40). On the other hand, BC-05 antibody is an antibody prepared using Aβ (35-43) as an antigen, and recognizes the C-terminal region of Aβ (1-42) but not Aβ (1-40). Therefore, Aβ (1-40) can be assayed with a combination of BAN-50 antibody with BA-27 antibody, and Aβ (1-42) can be assayed with a combination of BAN-50 antibody with BC-05 antibody. […]

secreted βAPP = settings: in vitro various cells; cited from earlier work
[8] = tested on: Aβ production or secretion; settings: in vitro various cells; cited from earlier work

| Structure (SMILES) | toxic problems in use as a medicament [1] | Aβ (1-42) production and secretion compared to the control group ([2]; 1×10^-5 M) | Aβ (1-42) production and secretion compared to the control group ([2]; 3×10^-6 M) | cytotoxicity (MTT) [3] | production or secretion of Aβ (1-40) [4] | cytotoxicity (LDH activity in the culture supernatant) (IMR-32 cells [5]) | cytotoxicity (formazan formed from MTT) (IMR-32 cells [6]) | inhibition at 100 µM ([7]; 1×10^-4 M) [%] | inhibition at 10 µM ([7]; 1×10^-5 M) [%] | inhibition at 30 µM ([7]; 3×10^-5 M) [%] | inhibition at 3 µM ([7]; 3×10^-6 M) [%] | secreted βAPP (secreted βAPP) | Aβ production or secretion [8] |
| --- | --- | --- | --- | --- | --- | --- | --- | --- | --- | --- | --- | --- | --- |
| CCOC(=O)C1=C[C@]2(CC)CCCN3CCc4c(n1c1ccccc41)[C@@H]32 [Vinpocetine, vinpocetine] | no toxic problems | showed a tendency to decrease | showed a tendency to decrease | without any cytotoxicity | inhibited production or secretion of Aβ (1-40) | only slight cytotoxicity | only slight cytotoxicity | 45 | 30 | 40 | 10 | – | – |
| C[N+](C)(C)CCOC(N)=O [carbacol] | – | – | – | – | – | – | – | – | – | – | – | increase the secreted βAPP | inhibit Aβ production or secretion |
